Columns and labels:
[1] = test system: tumor necrosis factor (α); assay: Cytokine Induction in Human Cells: tumor necrosis factor (α) by ELISA or IGEN Assay; format: cell-based; set-up: key to Lowest Effective Concentration Tumor Necrosis Factor: A “*” indicates that no induction was seen at any of the tested concentrations; conditions: human PBMC, 18 to 24 hours incubation, compounds generally tested at 30-0.014 μM; for minimal effective concentration: read-out: Lowest Effective Concentration Tumor Necrosis Factor
Excerpt: (§1) An in vitro human blood cell system is used to assess cytokine induction. Activity is based on the measurement of interferon and tumor necrosis factor (α) (IFN and TNF, respectively) secreted into culture media as described by Testerman et. al. In “Cytokine Induction by the Immunomodulators Imiquimod and S-27609”, Journal of Leukocyte Biology, 58, 365-372 (September, 1995).
(§2) Whole blood from healthy human donors is collected by venipuncture into EDTA vacutainer tubes. Peripheral blood mononuclear cells (PBMC) are separated from whole blood by density gradient centrifugation using Histopaque®-1077. Blood is diluted 1:1 with Dulbecco's Phosphate Buffered Saline (DPBS) or Hank's Balanced Salts Solution (HBSS). The PBMC layer is collected and washed twice with DPBS or HBSS and resuspended at 4×10^6 cells/mL in RPMI complete. The PBMC suspension is added to 48 well flat bottom sterile tissue culture plates (Costar, Cambridge, Mass. or Becton Dickinson Labware, Lincoln Park, N.J.) containing an equal volume of RPMI complete media containing test compound.
(§3) The compounds are solubilized in dimethyl sulfoxide (DMSO). The DMSO concentration should not exceed a final concentration of 1% for addition to the culture wells. The compounds are generally tested at concentrations ranging from 30-0.014 μM.
(§4) The solution of test compound is added at 60 μM to the first well containing RPMI complete and serial 3 fold dilutions are made in the wells. The PBMC suspension is then added to the wells in an equal volume, bringing the test compound concentrations to the desired range (30-0.014 μM). The final concentration of PBMC suspension is 2×10^6 cells/mL. The plates are covered with sterile plastic lids, mixed gently and then incubated for 18 to 24 hours at 37° C. in a 5% carbon dioxide atmosphere.
(§5) Following incubation the plates are centrifuged for 10 minutes at 1000 rpm (˜200×g) at 4° C. The cell-free culture supernatant is removed with a sterile polypropylene pipet and transferred to sterile polypropylene tubes. Samples are maintained at −30 to −70° C. until analysis. The samples are analyzed for interferon (α) by ELISA and for tumor necrosis factor (α) by ELISA or IGEN Assay
Tumor necrosis factor (α) (TNF) concentration is determined using ELISA kits available from Biosource International, Camarillo, Calif. Alternately, the TNF concentration can be determined by Origen® M-Series Immunoassay and read on an IGEN M-8 analyzer from IGEN International, Gaithersburg, Md. The immunoassay uses a human TNF capture and detection antibody pair from Biosource International, Camarillo, Calif. Results are expressed in pg/mL.
(§6) The table below lists the lowest concentration found to induce interferon and the lowest concentration found to induce tumor necrosis factor for each compound.

interferon (α) = assay: Cytokine Induction in Human Cells: interferon (α) by ELISA; format: cell-based; conditions: human PBMC, 18 to 24 hours incubation, compounds generally tested at 30-0.014 μM; read-out: Lowest Effective Concentration Interferon
Excerpt: as §1, §2, §3, §4, §5
Interferon (α) concentration is determined by ELISA using a Human Multi-Species kit from PBL Biomedical Laboratories, New Brunswick, N.J. Results are expressed in pg/mL.
as §6

melting point [°C] | Structure (SMILES) | minimal effective concentration [1] [µM] | minimal effective concentration (interferon (α)) [µM] | Lowest Effective Concentration Tumor Necrosis Factor [1]
165 to 167 | CCOCc1nc2c(N)nc(C)c(C)c2n1CCCCNS(C)(=O)=O [Example 8, N-{4-[4-amino-2-(ethoxymethyl)-6,7-dimethyl-1H-imidazo[4,5-c]pyridin-1-yl]butyl}methanesulfonamide] | 10 | 0.04 | 
228 to 230 | Cc1nc(N)c2nc(C)n(CCCCNS(C)(=O)=O)c2c1C [Example 7, N-[4-(4-amino-2,6,7-trimethyl-1H-imidazo[4,5-c]pyridin-1-yl)butyl]methanesulfonamide] |  | 0.37 | *
129.5 to 131 | CCCCc1nc2c(N)nc(C)c(C)c2n1CCCCNS(=O)(=O)N(C)C [Example 6, N′-[4-(4-Amino-2-butyl-6,7-dimethyl-1H-imidazo[4,5-c]pyridin-1-yl)butyl]-N,N-dimethylsulfamide] | 0.01 | 0.01 | 
